Assay results published in patent US8835447B2, “Method for treating androgen receptor positive cancers” (priority 2009, dated 2014).
“Also recorded” adds a separate entry of the source.

What was measured:
LNCaP cells = experiment: Colony formation assay, LNCaP cells; type: cell-based, human; settings: 10 μM, 7 days
Experimental: (§1) Cell Colony Assay: Cells were plated in 24-well plates at a density allowing 6-7 days of exponential growth before confluency. Medium and compound was replaced every 48 hours to minimize the effect of potential compound instability. After 7 days of incubation in the presence of compound, cells were fixed and stained with methylene blue, followed by extraction of the stain with 1% SDS and spectrophotometry at 650 nm. Each assay was run in triplicate and the difference between control and compound-treated wells was determined using Student's t-test. This Example provides a description of the effect of the selected compounds on the growth of PCa cells. To test the toxicity of the identified AR inhibitors towards cells of different origins, we performed colony formation assays using a single dose of each compound (10 μM) on several PCa (LNCaP, C4-2, CW[…] and DU145) and two non-PCa (HT1080 and HeLa) cell lines (FIG. 2A). […] These compounds were not weaker inhibitors of AR transcriptional activity in CW[…] or C4-2 cells than compounds that inhibited growth of the cells.

C4-2 and CWR22R cells = experiment: Colony formation assay, androgen-independent C4-2 and CWR22R cells; type: cell-based, human; settings: 10 μM, 7 days
Experimental: as §1

[1] = tested on: HT1080, HeLa and DU145 cells; experiment: Colony formation assay, non-PCa and AR-negative PCa cells; type: cell-based, human; settings: 10 μM, 7 days
Experimental: (§2) Cell Colony Assay: Cells were plated in 24-well plates at a density allowing 6-7 days of exponential growth before confluency. Medium and compound was replaced every 48 hours to minimize the effect of potential compound instability. After 7 days of incubation in the presence of compound, cells were fixed and stained with methylene blue, followed by extraction of the stain with 1% SDS and spectrophotometry at 650 nm. Each assay was run in triplicate and the difference between control and compound-treated wells was determined using Student's t-test.
(§3) This Example provides a description of the effect of the selected compounds on the growth of PCa cells. To test the toxicity of the identified AR inhibitors towards cells of different origins, we performed colony formation assays using a single dose of each compound (10 μM) on several PCa (LNCaP, C4-2, CWR22R and DU145) and two non-PCa (HT1080 and HeLa) cell lines (FIG. 2A). […] These compounds were not weaker inhibitors of AR transcriptional activity in CWR22R or C4-2 cells than compounds that inhibited growth of the cells.

[2] = tested on: AR-expressing PCa cell lines (LNCaP, C4-2, CWR22R); experiment: Toxicity to AR-expressing PCa cell lines (colony formation / dose-dependent growth inhibition); type: cell-based, human; settings: for toxicity towards AR-expressing PCa cell lines: colony formation, 10 μM, three AR-expressing PCa cell lines; for degree of toxicity to PCa cells (killing vs reduced growth): dose-dependent toxicity, by day 7
Experimental: as §2
Dose-dependent inhibition of cell growth: Cells were plated at 1×10^3 cells per well in 96-well plates. Compounds were added in a dose range from 1 to 20000 nM in two-fold increments. Each dose was tested in triplicate. Controls were 0.1% DMSO (no effect on cell viability) and 50 μM 9-aminoacridine (complete cell death). Cells were incubated for 6 days and then fixed and stained with methylene blue, followed by extraction of the stain with 1% SDS and spectrophotometry at 650 nm. The assay was run two times and, based on the results, the inhibitory concentration of compound suppressing cell growth by 50% as compared to DMSO (IC50) was calculated by the sigmoid approximation method using CalcuSyn software (Biosoft, Chembridge, UK). Confidence intervals were calculated for each sigmoid.
as §3, with “the cells. […]” for “the cells.”

C4-2 tumors = experiment: C4-2 xenograft model in nude mice; type: in vivo, mouse; settings: 6 daily i.p. injections, 100xIC50 dose
Text: FIGS. 6A and 6B provide data showing anti-tumor activity of the selected hits in mouse models of androgen-independent PCa. FIG. 6A provides a graphical representation of data obtained from i.p. injection of the listed compounds or DMSO vehicle into nude mice carrying subcutaneous (s.c.) C4-2 tumors. Six daily injections were given starting when tumors were around 100 mm3 in size. There were 4-5 mice per group with two tumors per mouse. Asterisks (*) and number signs (#) are placed under the means of measurement in the c6 and c11 groups respectively which are statistically different from the control group by ANOVA test (>99%) B. C52 (9 mg/kg or 18 mg/kg) or DMSO vehicle was injected into the tail vein of nude mice carrying s.c. CWR22R tumors. Five daily injections were given starting when tumors were around 40 mm3 in size. There were 10 mice per group with one tumor per mouse. Asterisks (*) are placed under the means of measurement which are statistically different from the control group by ANOVA test (>99%). Error bars in both FIGS. 6A and B—standard deviation between the size of tumors within a given treatment group.
Testing of the anti-tumor effect of compounds in mice was done according to an IACUC-approved protocol in 8 week old male athymic nude mice from Harlan (Indianapolis, Ind.). For the C4-2 xenograft model, 10^6 C4-2 cells were injected subcutaneously (s.c.) in 2 sites of each mouse in 50% matrigel (BD Biosciences, Bradford, Mass.) in PBS. Upon development of visible tumors, they were measured using digital caliper. Tumor volume was calculated according to the formula: […]. Mice were injected with compounds i.p. daily for 6 days starting on the day when at least one tumor per mouse reached 100 mm^3 in size. Five mice per group were used. For the CWR22R xenograft model, CWR22R cells were inoculated (10^5 cells per inoculum) in 50% matrigel, one site per mouse. Treatment was started when the tumor grew to a size of at least 25 mm^3. Compounds were diluted in captisol (CyDex, Lenexa, Kans.) and delivered intravenously (to reduce “first pass” liver effect) once a day for 5 days. Ten mice per group were used. Mice were monitored daily and tumors were measured every other day. Mice were euthanized according to institutional regulations when the size of tumor reached 1000 mm^3. Comparison of the tumor growth in control and treated mice was done using ANOVA test.
We evaluated the potential anti-tumor effect of the hits using C4-2 and CWR22R xenograft models of androgen-independent PCa in nude mice. Groups of C4-2 tumor-bearing mice (4-5 mice per group, each with two tumors) were given 6 daily i.p. injections of compound (100×IC50 dose) or DMSO vehicle.

## CC(C)c1ccc2oc(-c3cccc(NC(=S)NC(=O)c4ccccc4Br)c3)nc2c1 [c16]
LNCaP cells
  growth of androgen-sensitive LNCaP cells: suppressed growth of LNCaP cells; also recorded: suppress growth of androgen-sensitive LNCaP cells
C4-2 and CWR22R cells
  growth of androgen-independent C4-2 and CWR22R cells: do not affect growth

## O=C(NC(=S)Nc1nc(-c2ccccc2)cs1)c1ccc(-c2ccccc2)cc1 [c17]
[1]
  growth of / toxicity towards non-PCa cells or AR-negative PCa cells (DU145): no toxicity
[2]
  toxicity towards AR-expressing PCa cell lines: different degrees of toxicity; also recorded: suppress growth of all
  degree of toxicity to PCa cells (killing vs reduced growth): reduced growth as compared to untreated control cells, but not obvious cell death
C4-2 tumors
  C4-2 tumor growth: did not

## c1ccc(CNc2ccc(-c3nc4ccccc4o3)cc2)cc1 [c55]
LNCaP cells
  growth of androgen-sensitive LNCaP cells: suppressed growth of LNCaP cells; also recorded: suppress growth of androgen-sensitive LNCaP cells
C4-2 and CWR22R cells
  growth of androgen-independent C4-2 and CWR22R cells: do not affect growth

## C=CCc1ccc(OCCCOc2ccccc2C(C)=O)c(OC)c1 [c47]
LNCaP cells
  growth of androgen-sensitive LNCaP cells: suppressed growth of LNCaP cells; also recorded: suppress growth of androgen-sensitive LNCaP cells
C4-2 and CWR22R cells
  growth of androgen-independent C4-2 and CWR22R cells: do not affect growth

## Cc1ccc(OCC(=O)Nc2ccc(Cl)c([N+](=O)[O-])c2)c(C)c1 [c61]
LNCaP cells
  growth of androgen-sensitive LNCaP cells: suppressed growth of LNCaP cells; also recorded: suppress growth of androgen-sensitive LNCaP cells
C4-2 and CWR22R cells
  growth of androgen-independent C4-2 and CWR22R cells: do not affect growth

## C=CCc1ccccc1OCCOc1ccc(C=Nn2cnnc2)cc1OC [c18]
[1]
  growth of / toxicity towards non-PCa cells or AR-negative PCa cells (DU145): no toxicity
[2]
  toxicity towards AR-expressing PCa cell lines: different degrees of toxicity; also recorded: suppress growth of all
  degree of toxicity to PCa cells (killing vs reduced growth): reduced growth as compared to untreated control cells, but not obvious cell death

## FC(F)(F)c1ccccc1CN1CCN(Cc2c[nH]c3ccccc23)CC1 [c66]
[1]
  growth of / toxicity towards non-PCa cells or AR-negative PCa cells (DU145): exception

## CC1=C(C(=O)OCCc2ccccc2)C(c2ccc(Cl)cc2)C2=C(CCCC2=O)N1 (stereo not drawn) [c8]
LNCaP cells
  growth of androgen-sensitive LNCaP cells: suppressed growth of LNCaP cells; also recorded: suppress growth of androgen-sensitive LNCaP cells
C4-2 and CWR22R cells
  growth of androgen-independent C4-2 and CWR22R cells: do not affect growth
